The values below come from ChEMBL document CHEMBL1201862, “PubChem BioAssay data set” (2004).

Structures are written as SMILES.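 Five concentrations, 48 hours, 96-well plates. GI50 is the concentration that inhibits growth by half.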 Active and inactive are the calls of the source. Cut-off read from the data, not from the text of the source: active = GI50 up to about 1.1 µM and inactive = higher. A value given as a limit tells only on which side of the number the result lay.

Assay in all cases: NCI anticancer screen, dose series, 48 h
The subject of assay [1] is RXF 393.
Assay [2] relates to SNB-19.
In assay [3] the test system is HL-60.
Assay [4] deals with HOP-92.
For assay [5], the system named is OVCAR-4.
Assay [6] concerns SF-539.
Assay [7] deals with SW-620.
Assay [8] relates to BT-549.
For assay [9], the system named is NCI-H522.
The test system of assay [10] is UO-31.
In assay [11] the test system is A549.
Assay [12] has as its system NCI-H460.
Assay [13] deals with M14.
The subject of assay [14] is DU-145.
Assay [15] concerns OVCAR-8.
In assay [16] the test system is Malme-3M.
The test system of assay [17] is KM12.
The test system of assay [18] is HOP-62.
Assay [19] concerns SNB-75.
The test system of assay [20] is SF-295.

Consider `O=C(O)CSc1ccn(Cc2ccccc2)c1`, for which the GI50 in assay [1], in assay [2], in assay [3], in assay [4], in [5] and in assay [6] was > 100 µM (inactive) in each case. For the same molecule, the GI50 in assay [7], in assay [8], in [9], in [10], in [11] and in assay [12] was > 100 µM (inactive) throughout. Besides, the GI50 in [13], in [14], in assay [15], in [16], in assay [17] and in [18] was > 100 µM (inactive) each time. Also, the GI50 in assay [19] and in assay [20] was > 100 µM (inactive) each time.
Regarding `CCC(=O)OC1CCn2c1nc1c2C(=O)C(C)=C(N2CC2)C1=O` (stereo not given), the GI50 in assay [1] is 0.0565 µM (active); in [2], 0.0989 µM (active); in [3], 0.35 µM (active); in [4] it was 1.53 µM (inactive); in assay [5], 0.126 µM (active); in [6], 0.143 µM (active). For the same molecule, the GI50 in assay [7] is 0.0488 µM (active); in assay [8], 0.0546 µM (active); in [9], 0.0361 µM (active); in assay [10], 0.0698 µM (active); in assay [11] it was 0.115 µM (active); in assay [12], 0.045 µM (active). Moreover, the GI50 in [13] was 0.0698 µM (active); in assay [14], 0.00743 µM (active); in assay [15] it was 0.0678 µM (active); in [16], 0.063 µM (active); in [17], 0.0938 µM (active); in assay [18], 0.0697 µM (active). Besides, the GI50 was 0.0301 µM (active) in [19] and 0.0728 µM (active) in assay [20].
`Nc1ccn(C2CCC(COP(=O)(O)OCC(O)COP(=O)(O)OCC3OC(n4cc(F)c(=O)[nH]c4=O)CC3O)O2)c(=O)n1` (stereo not given): the GI50 is 3.33 µM (inactive) in assay [1]; 0.211 µM (active) in [2]; 0.0716 µM (active) in [3]; 0.0419 µM (active) in [4]; > 23.7 µM (inactive) in assay [5]; 0.0216 µM (active) in assay [6]. The GI50 is > 100 µM (inactive) in assay [7]; 3.09 µM (inactive) in assay [8]; 0.628 µM (active) in [9]; 0.0622 µM (active) in assay [10]; 0.386 µM (active) in assay [11]; < 0.01 µM (active) in assay [12]. For the same molecule, the GI50 in assay [13] is 0.473 µM (active); in [14], 0.165 µM (active); in assay [15], 0.157 µM (active); in assay [16], > 53.8 µM (inactive); in [17], > 38.1 µM (inactive); in assay [18], 0.232 µM (active). For the same molecule, the figures for the GI50 in assay [19] and in [20] were 3.54 µM (inactive) and 0.0459 µM (active), respectively.
Regarding `COc1ccc(OC)c(C[P+](c2ccccc2)(c2ccccc2)c2ccccc2)c1`, the GI50 is 4.68 µM (inactive) in [1]; 2.67 µM (inactive) in assay [2]; 0.434 µM (active) in assay [3]; 0.792 µM (active) in assay [4]; 4.01 µM (inactive) in assay [5]; 3.82 µM (inactive) in assay [6]. Moreover, the GI50 in assay [7] was 2.61 µM (inactive); in [8], 2.06 µM (inactive); in assay [9] it was 9.23 µM (inactive); in assay [10], 21.6 µM (inactive); in [11], 3.56 µM (inactive); in [12], 3.84 µM (inactive). Moreover, the GI50 in assay [13] was 2.42 µM (inactive); in assay [14], 3.27 µM (inactive); in assay [15] it was 2.08 µM (inactive); in [16], 5.56 µM (inactive); in assay [17] it was 1.11 µM (active); in [18], 3.77 µM (inactive). Also, the GI50 in [19] is 3.71 µM (inactive); in assay [20], 3.96 µM (inactive).
In the case of `CCCCc1ccc(Nc2nc(OC)c3ncn(C4CC(O)C(CO)O4)c3n2)cc1` (stereo not given), the GI50 in [1] was 14.8 µM (inactive); in [2], 19.2 µM (inactive); in assay [3] it was 2.05 µM (inactive); in [4], 1.97 µM (inactive); in [5], 18 µM (inactive); in assay [6], 13.7 µM (inactive). Further, the GI50 in [7] is 19.7 µM (inactive); in assay [8], 18.9 µM (inactive); in assay [9] it was 1.86 µM (inactive); in assay [10], 19.2 µM (inactive); in assay [11], 16.8 µM (inactive); in assay [12], 16.4 µM (inactive). Besides, the GI50 in assay [13] was 28.9 µM (inactive); in assay [14] it was 19.6 µM (inactive); in assay [15] it was 16.4 µM (inactive); in [16], 20.7 µM (inactive); in assay [17], 16.5 µM (inactive); in [18], 34 µM (inactive). Besides, the GI50 in assay [19] is 18 µM (inactive); in [20], 18.5 µM (inactive).
Consider `COC(=O)CN1c2nc(C#N)c(C#N)nc2N(CC(=O)OC)c2nc(C#N)c(C#N)nc21`, for which the GI50 in assay [1] was 2.91 µM (inactive); in assay [2] it was 12 µM (inactive); in assay [3] it was 2.26 µM (inactive); in [4], 1.87 µM (inactive); in assay [5], 3.1 µM (inactive); in assay [6], 7.11 µM (inactive). The GI50 is 1.76 µM (inactive) in [7]; 4.78 µM (inactive) in assay [8]; 0.863 µM (active) in assay [9]; 1.69 µM (inactive) in assay [10]; 12 µM (inactive) in assay [11]; 22 µM (inactive) in assay [12]. Besides, the GI50 is 1.84 µM (inactive) in [13]; 1.43 µM (inactive) in assay [14]; 2.37 µM (inactive) in [15]; 0.301 µM (active) in assay [16]; 8.22 µM (inactive) in assay [17]; 16.5 µM (inactive) in [18]. In addition, the GI50 in assay [19] is 14 µM (inactive); in assay [20], 19.5 µM (inactive).
With `CCCCSC1=N/C(=C\c2ccccc2O)C(=O)N1`, the GI50 in assay [1] is 50.5 µM (inactive); in assay [2] it was 77.8 µM (inactive); in assay [3], 94.6 µM (inactive); in assay [4] it was 44 µM (inactive); in assay [5], 66.1 µM (inactive); in [6], 41.5 µM (inactive). In addition, the GI50 was > 100 µM (inactive) in assay [7]; 49.4 µM (inactive) in [8]; 69 µM (inactive) in [9]; 21.6 µM (inactive) in [10]; 20.7 µM (inactive) in assay [11]; 53.2 µM (inactive) in assay [12]. For the same molecule, the GI50 was 71.6 µM (inactive) in assay [13]; > 100 µM (inactive) in [14]; > 100 µM (inactive) in [15]; > 100 µM (inactive) in assay [16]; 49.8 µM (inactive) in assay [17]; > 100 µM (inactive) in assay [18]. Also, the GI50 is > 100 µM (inactive) in assay [19] and 92 µM (inactive) in assay [20].
As to `CCOc1ccc(/N=C/c2ccnc3ccccc23)cc1`, the GI50 is > 96.6 µM (inactive) in assay [1]; 82.8 µM (inactive) in [2]; 2.05 µM (inactive) in [3]; 49.8 µM (inactive) in assay [4]; 62.8 µM (inactive) in assay [5]; 26.5 µM (inactive) in [6]. For the same molecule, the GI50 in [7] was 4.56 µM (inactive); in assay [8] it was 34.4 µM (inactive); in assay [9], 36.3 µM (inactive); in assay [10] it was 45.2 µM (inactive); in assay [11], > 86.3 µM (inactive); in assay [12], 61.7 µM (inactive). Further, the GI50 was 30.3 µM (inactive) in [13]; 60.3 µM (inactive) in assay [14]; 21.2 µM (inactive) in assay [15]; 75.9 µM (inactive) in assay [16]; 19.7 µM (inactive) in [17]; 54.6 µM (inactive) in assay [18]. Besides, the GI50 was 29.2 µM (inactive) in assay [19] and 49.1 µM (inactive) in [20].
In the case of `O=C1CC(c2cccc([N+](=O)[O-])c2)C2(C(=O)NC(=O)NC2=O)C(c2cccc([N+](=O)[O-])c2)C1` (stereo not given), the GI50 in [1] is 13.6 µM (inactive); in [2], > 100 µM (inactive); in assay [3], > 100 µM (inactive); in assay [4], 36.5 µM (inactive); in assay [5], > 100 µM (inactive); in [6] it was > 100 µM (inactive). Also, the GI50 in assay [7] was > 100 µM (inactive); in assay [8] it was > 100 µM (inactive); in assay [9], 78.2 µM (inactive); in assay [10] it was 88.3 µM (inactive); in assay [11] it was > 100 µM (inactive); in [12], > 100 µM (inactive). Besides, the GI50 was > 100 µM (inactive) in [13]; 64.4 µM (inactive) in assay [14]; > 100 µM (inactive) in assay [15]; 0.783 µM (active) in assay [16]; 27.5 µM (inactive) in assay [17]; > 100 µM (inactive) in assay [18]. For the same molecule, the figures for the GI50 in [19] and in [20] were > 100 µM (inactive) and 34.5 µM (inactive), respectively.
For the molecule `COc1ccc2nc3ccccc3c(NCCN(C)CCCl)c2c1`, the GI50 in assay [1] is 0.592 µM (active); in [2] it was 1.12 µM (inactive); in assay [3], 0.259 µM (active); in assay [4], 0.622 µM (active); in assay [5], 0.908 µM (active); in assay [6], 0.388 µM (active). Further, the GI50 is 0.175 µM (active) in [7]; 0.9 µM (active) in assay [8]; 0.282 µM (active) in [9]; 1.16 µM (inactive) in assay [10]; 0.479 µM (active) in assay [11]; 0.322 µM (active) in [12]. Besides, the GI50 in assay [13] is 0.843 µM (active); in assay [14] it was 1.12 µM (active); in [15], 0.431 µM (active); in [16], 0.399 µM (active); in assay [17], 0.807 µM (active); in assay [18], 0.869 µM (active). The GI50 in assay [19] is 1.04 µM (active); in [20], 0.728 µM (active).
